Measurements reported in the NIST ThermoML archive (doi:10.1021/je901043q).

Assays:
[1] = 101 kPa, Liquid
[2] = xn = mol fraction of the nth substance listed; settings: 101 kPa, Liquid

CCCCn1cc[n+](C)c1.N#C[S-] [1-butyl-3-methylimidazolium thiocyanate]
[1]
Settings	mass density [kg/m3]	viscosity [mPa·s]
298.15 K	1069.79	51.74
308.15 K	1063.89	34.87
318.15 K	1058.02	24.19
328.15 K	1052.19	16.7
338.15 K	1046.43	12.73
348.15 K	1040.7	9.98

CCCCn1cc[n+](C)c1.N#C[S-] [1-butyl-3-methylimidazolium thiocyanate] + CCCCCCCCCO
[2]
Settings	mass density [kg/m3]	viscosity [mPa·s]
298.15 K, x1 = 0.1203	855.59	12.19
298.15 K, x1 = 0.2008	876.27	14.2
298.15 K, x1 = 0.2814	896.75	16.58
298.15 K, x1 = 0.3884	923.66	20.3
298.15 K, x1 = 0.5697	968.54	28.04
298.15 K, x1 = 0.6709	993.14	32.31
298.15 K, x1 = 0.7658	1015.88	–
298.15 K, x1 = 0.8618	1038.46	41.61
298.15 K, x1 = 0.9651	1062.11	46.89
298.15 K, x1 = 1	1069.79	51.74
308.15 K, x1 = 0.1203	848.88	8.664
308.15 K, x1 = 0.2008	869.7	10.14
308.15 K, x1 = 0.2814	890.24	11.81
308.15 K, x1 = 0.3884	917.27	14.3
308.15 K, x1 = 0.5697	962.4	19.35
308.15 K, x1 = 0.6709	987.05	22.23
308.15 K, x1 = 0.7658	1009.89	–
308.15 K, x1 = 0.8618	1032.53	27.8
308.15 K, x1 = 0.9651	1056.18	31.09
308.15 K, x1 = 1	1063.89	34.87
318.15 K, x1 = 0.1203	841.98	6.378
318.15 K, x1 = 0.2008	862.96	7.487
318.15 K, x1 = 0.2814	883.74	8.739
318.15 K, x1 = 0.3884	910.89	10.55
318.15 K, x1 = 0.5697	956.26	14.03
318.15 K, x1 = 0.6709	981.02	16.01
318.15 K, x1 = 0.7658	1003.93	–
318.15 K, x1 = 0.8618	1026.62	19.67
318.15 K, x1 = 0.9651	1050.33	21.81
318.15 K, x1 = 1	1058.02	24.19
328.15 K, x1 = 0.1203	835.4	4.782
328.15 K, x1 = 0.2008	856.36	5.662
328.15 K, x1 = 0.2814	877.25	6.629
328.15 K, x1 = 0.3884	904.56	8.032
328.15 K, x1 = 0.5697	950.15	10.61
328.15 K, x1 = 0.6709	975	12.04
328.15 K, x1 = 0.7658	998.03	–
328.15 K, x1 = 0.8618	1020.79	14.55
328.15 K, x1 = 0.9651	1044.5	16.06
328.15 K, x1 = 1	1052.19	16.7
338.15 K, x1 = 0.1203	828.56	3.695
338.15 K, x1 = 0.2008	849.77	4.408
338.15 K, x1 = 0.2814	870.73	5.139
338.15 K, x1 = 0.3884	898.2	6.237
338.15 K, x1 = 0.5697	944.06	8.26
338.15 K, x1 = 0.6709	969.04	9.33
338.15 K, x1 = 0.7658	992.15	–
338.15 K, x1 = 0.8618	1014.99	11.22
338.15 K, x1 = 0.9651	1038.73	12.32
338.15 K, x1 = 1	1046.43	12.73
348.15 K, x1 = 0.1203	821.64	2.971
348.15 K, x1 = 0.2008	843.14	3.521
348.15 K, x1 = 0.2814	864.18	4.102
348.15 K, x1 = 0.3884	891.86	4.962
348.15 K, x1 = 0.5697	937.98	6.512
348.15 K, x1 = 0.6709	963.09	7.404
348.15 K, x1 = 0.7658	986.31	–
348.15 K, x1 = 0.8618	1009.22	8.89
348.15 K, x1 = 0.9651	1032.99	9.74
348.15 K, x1 = 1	1040.7	9.98

CCCCCCCCCCO [decan-1-ol]
[1]
Settings	mass density [kg/m3]	viscosity [mPa·s]
298.15 K	826.38	11.09
308.15 K	819.53	7.632
318.15 K	812.62	5.375
328.15 K	805.61	3.928
338.15 K	798.48	2.964
348.15 K	791.21	2.399

CCCCCCCCCCO [decan-1-ol] + CCCCn1cc[n+](C)c1.N#C[S-]
[2], x2 = 0
Settings	mass density [kg/m3]	viscosity [mPa·s]
298.15 K	826.38	11.09
308.15 K	819.53	7.632
318.15 K	812.62	5.375
328.15 K	805.61	3.928
338.15 K	798.48	2.964
348.15 K	791.21	2.399

CCCCCCCO [heptan-1-ol]
[1]
Settings	mass density [kg/m3]	viscosity [mPa·s]
298.15 K	818.81	5.851
308.15 K	811.73	4.26
318.15 K	804.55	3.184
328.15 K	797.22	2.434
338.15 K	789.75	1.9
348.15 K	782.08	1.512

CCCCCCCO [heptan-1-ol] + CCCCn1cc[n+](C)c1.N#C[S-]
[2], x2 = 0
Settings	mass density [kg/m3]	viscosity [mPa·s]
298.15 K	818.81	5.851
308.15 K	811.73	4.26
318.15 K	804.55	3.184
328.15 K	797.22	2.434
338.15 K	789.75	1.9
348.15 K	782.08	1.512

CCCCCCCCCO [nonan-1-ol]
[1]
Settings	mass density [kg/m3]	viscosity [mPa·s]
298.15 K	824.27	9.343
308.15 K	817.36	6.497
318.15 K	810.4	4.674
328.15 K	803.29	3.452
338.15 K	796.1	2.664
348.15 K	788.72	2.256

CCCCCCCCCO [nonan-1-ol] + CCCCn1cc[n+](C)c1.N#C[S-]
[2], x2 = 0
Settings	mass density [kg/m3]	viscosity [mPa·s]
298.15 K	824.27	9.343
308.15 K	817.36	6.497
318.15 K	810.4	4.674
328.15 K	803.29	3.452
338.15 K	796.1	2.664
348.15 K	788.72	2.256

CCCCCCCCO [octan-1-ol]
[1]
Settings	mass density [kg/m3]	viscosity [mPa·s]
298.15 K	821.61	7.398
308.15 K	814.64	5.285
318.15 K	807.57	3.887
328.15 K	800.39	2.931
338.15 K	793.09	2.262
348.15 K	785.59	1.782

CCCCCCCCO [octan-1-ol] + CCCCn1cc[n+](C)c1.N#C[S-]
[2], x2 = 0
Settings	mass density [kg/m3]	viscosity [mPa·s]
298.15 K	821.61	7.398
308.15 K	814.64	5.285
318.15 K	807.57	3.887
328.15 K	800.39	2.931
338.15 K	793.09	2.262
348.15 K	785.59	1.782
